Measured values: patent US11247990B1, “Bicyclic fused pyridine compounds as inhibitors of TAM kinases” (ARRAY BIOPHARMA INC., priority 2017, dated 2022)

Tests used:
[1] = target: His-tagged recombinant human AXL cytoplasmic domain (Homo sapiens (Human), UniProt P30530); assay: AXL Enzyme Assay (LanthaScreen Eu Kinase Binding, TR-FRET); conditions: averaged IC50
Protocol: Compounds of Formula I were screened for their ability to inhibit AXL kinase using Invitrogen's LanthaScreen™ Eu Kinase Binding technology. […] After a 60-minute incubation at 22° C., the reaction was measured using a PerkinElmer EnVision multimode plate reader via TR-FRET dual wavelength detection, and the percent of control (POC) was calculated using a ratiometric emission factor. […] The POC values are fit to a 4 parameter logistic curve and the IC50 value is point where the curve crosses 50 POC.

[2] = target: His-tagged recombinant human MER cytoplasmic domain (Homo sapiens (Human), UniProt Q12866); assay: MER Enzyme Assay (LanthaScreen Eu Kinase Binding, TR-FRET); conditions: averaged IC50
How it was run: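 Percent of control, derived from ratiometric TR-FRET emission, was fitted to a 4-parameter logistic curve and IC50 taken at 50 POC. Binding was read after 60 min at 22 °C using Eu-based LanthaScreen technology and recombinant His-tagged MER cytoplasmic domain.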

His-tagged recombinant human MER cytoplasmic domain, sequence (Q12866 527-999): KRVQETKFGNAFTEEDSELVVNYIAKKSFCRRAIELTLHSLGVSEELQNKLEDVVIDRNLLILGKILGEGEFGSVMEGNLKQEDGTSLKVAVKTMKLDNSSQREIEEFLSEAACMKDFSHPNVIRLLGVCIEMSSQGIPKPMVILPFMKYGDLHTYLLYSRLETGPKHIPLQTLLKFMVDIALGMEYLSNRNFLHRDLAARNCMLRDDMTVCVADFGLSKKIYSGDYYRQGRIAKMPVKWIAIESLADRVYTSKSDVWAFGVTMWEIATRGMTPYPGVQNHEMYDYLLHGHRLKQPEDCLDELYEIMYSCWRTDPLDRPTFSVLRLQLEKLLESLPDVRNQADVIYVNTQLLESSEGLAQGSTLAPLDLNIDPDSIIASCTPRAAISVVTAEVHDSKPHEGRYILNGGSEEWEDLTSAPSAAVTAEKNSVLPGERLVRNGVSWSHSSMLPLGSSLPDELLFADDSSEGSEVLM
His-tagged recombinant human AXL cytoplasmic domain, sequence (P30530 473-894): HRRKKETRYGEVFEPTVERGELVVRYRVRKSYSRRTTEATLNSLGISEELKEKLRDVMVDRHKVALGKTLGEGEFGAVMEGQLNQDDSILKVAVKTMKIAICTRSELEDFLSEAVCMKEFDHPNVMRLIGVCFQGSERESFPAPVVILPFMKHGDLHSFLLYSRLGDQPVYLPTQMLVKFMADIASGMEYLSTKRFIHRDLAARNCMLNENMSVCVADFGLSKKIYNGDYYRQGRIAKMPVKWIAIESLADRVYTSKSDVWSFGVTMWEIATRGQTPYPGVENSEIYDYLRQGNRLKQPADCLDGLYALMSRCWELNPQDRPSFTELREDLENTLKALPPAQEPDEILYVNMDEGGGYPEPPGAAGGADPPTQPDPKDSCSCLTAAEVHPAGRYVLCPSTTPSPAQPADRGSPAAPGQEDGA

Compound	IC50 [1]	IC50 [2]
CNc1cc2c(cn1)c(-c1cnn(C(C)(C)C#N)c1)nn2[C@H]1CC[C@@H](Oc2cccnc2C)CC1 [Example 202, 2-methyl-2-(4-(6-(methylamino)-1-((1s,4s)-4-((2-methylpyridin-3-yl)oxy)cyclohexyl)-1H-pyrazolo[4,3-c]pyridin-3-yl)-1H-pyrazol-1-yl)propanenitrile]	< 10 nM	< 10 nM
CNc1cc2c(cn1)c(-c1cnn(C(C)(C)CO)c1)nn2[C@H]1CC[C@@H](Oc2nccnc2C)CC1 [Example 213, 2-methyl-2-(4-(6-(methylamino)-1-((1s,4s)-4-((3-methylpyrazin-2-yl)oxy)cyclohexyl)-1H-pyrazolo[4,3-c]pyridin-3-yl)-1H-pyrazol-1-yl)propan-1-ol]	< 10 nM	< 10 nM
CNc1cc2c(cn1)c(-c1ccc(CN3CCN(C)CC3)cc1)nn2[C@H]1CC[C@@H](Oc2cnn(C)c2)CC1 [Example 232, N-methyl-1-((1s,4s)-4-((1-methyl-1H-pyrazol-4-yl)oxy)cyclohexyl)-3-(4-((4-methylpiperazin-1-yl)methyl)phenyl)-1H-pyrazolo[4,3-c]pyridin-6-amine]	< 10 nM	< 10 nM
CCNc1cc2c(cn1)c(-c1cnc(=O)n(C)c1)nn2C1CCC(Oc2nccc(C(F)(F)F)c2F)CC1 (stereo not shown) [Example 256, 5-(6-(ethylamino)-1-((1s,4s)-4-((3-fluoro-4-(trifluoromethyl)pyridin-2-yl)oxy)cyclohexyl)-1H-pyrazolo[4,3-c]pyridin-3-yl)-1-methylpyrimidin-2(1H)-one]	< 10 nM	< 10 nM
CCNc1cc2c(cn1)c(-c1cn(C)c(=O)cn1)nn2[C@H]1CC[C@@H](Oc2nccc(C(F)(F)F)c2F)CC1 [Example 257, 5-(6-(ethylamino)-1-((1s,4s)-4-((3-fluoro-4-(trifluoromethyl)pyridin-2-yl)oxy)cyclohexyl)-1H-pyrazolo[4,3-c]pyridin-3-yl)-1-methylpyrazin-2(1H)-one]	< 10 nM	< 10 nM
CCNc1cc2c(cn1)c(-c1cnn(CC(=O)N(C)C)c1)nn2[C@H]1CC[C@@H](Oc2nccc(C(F)(F)F)c2F)CC1 [Example 259, 2-(4-(6-(ethylamino)-1-((1s,4s)-4-((3-fluoro-4-(trifluoromethyl)pyridin-2-yl)oxy)cyclohexyl)-1H-pyrazolo[4,3-c]pyridin-3-yl)-1H-pyrazol-1-yl)-N,N-dimethylacetamide]	< 10 nM	< 10 nM
CNc1cc2c(cn1)c(-c1ccc3c(c1)CNC3=O)nn2[C@H]1CC[C@@H](Oc2cnn(C)c2C(F)(F)F)CC1 [Example 266, 5-(1-((1s,4s)-4-((1-methyl-5-(trifluoromethyl)-1H-pyrazol-4-yl)oxy)cyclohexyl)-6-(methylamino)-1H-pyrazolo[4,3-c]pyridin-3-yl)isoindolin-1-one]	< 10 nM	< 10 nM
CCNc1cc2c(cn1)c(-c1cnc(C)nc1)nn2[C@H]1CC[C@@H](Oc2nccc(C(F)(F)F)c2F)CC1 [Example 268, N-ethyl-1-((1s,4s)-4-((3-fluoro-4-(trifluoromethyl)pyridin-2-yl)oxy)cyclohexyl)-3-(2-methylpyrimidin-5-yl)-1H-pyrazolo[4,3-c]pyridin-6-amine]	< 10 nM	< 10 nM
CCNc1cc2c(cn1)c(C1CCOCC1)nn2[C@H]1CC[C@@H](Oc2nccc(C(F)(F)F)c2F)CC1 [Example 317, N-ethyl-1-((1s,4s)-4-((3-fluoro-4-(trifluoromethyl)pyridin-2-yl)oxy)cyclohexyl)-3-(tetrahydro-2H-pyran-4-yl)-1H-pyrazolo[4,3-c]pyridin-6-amine]	< 10 nM	< 10 nM
CCNc1cc2c(cn1)c(C1CCOC1)nn2[C@H]1CC[C@@H](Oc2nccc(C(F)(F)F)c2F)CC1 (stereo partly shown) [Example 323, N-ethyl-1-((1s,4s)-4-((3-fluoro-4-(trifluoromethyl)pyridin-2-yl)oxy)cyclohexyl)-3-(tetrahydrofuran-3-yl)-1H-pyrazolo[4,3-c]pyridin-6-amine]	< 10 nM	< 10 nM
CCNc1cc2c(cn1)c(N1CC[C@H](OC)C1)nn2[C@H]1CC[C@@H](Oc2nccc(C(F)(F)F)c2F)CC1 [Example 332, N-ethyl-1-((1s,4R)-4-((3-fluoro-4-(trifluoromethyl)pyridin-2-yl)oxy)cyclohexyl)-3-((S)-3-methoxypyrrolidin-1-yl)-1H-pyrazolo[4,3-c]pyridin-6-amine]	< 10 nM	< 10 nM
CNc1cc2c(cn1)c(-c1cnn(C)c1)nn2[C@H]1CC[C@@H](Oc2ccccc2F)CC1 [Example 353, 1-((1s,4s)-4-(2-fluorophenoxy)cyclohexyl)-N-methyl-3-(1-methyl-1H-pyrazol-4-yl)-1H-pyrazolo[4,3-c]pyridin-6-amine]	< 10 nM	< 10 nM
CNc1cc2c(cn1)c(-c1cnn(C)c1)nn2[C@H]1CC[C@@H](Oc2cccc(F)c2)CC1 [Example 354, 1-((1s,4s)-4-(3-fluorophenoxy)cyclohexyl)-N-methyl-3-(1-methyl-1H-pyrazol-4-yl)-1H-pyrazolo[4,3-c]pyridin-6-amine]	< 10 nM	< 10 nM
CNc1cc2c(cn1)c(-c1cnn(C)c1)nn2[C@H]1CC[C@@H](Oc2ccc(F)cc2)CC1 [Example 355, 1-((1s,4s)-4-(4-fluorophenoxy)cyclohexyl)-N-methyl-3-(1-methyl-1H-pyrazol-4-yl)-1H-pyrazolo[4,3-c]pyridin-6-amine]	< 10 nM	< 10 nM
CNc1cc2c(cn1)c(-c1cnn(C)c1)nn2[C@H]1CC[C@@H](Oc2cccc(F)c2F)CC1 [Example 357, 1-((1s,4s)-4-(2,3-difluorophenoxy)cyclohexyl)-N-methyl-3-(1-methyl-1H-pyrazol-4-yl)-1H-pyrazolo[4,3-c]pyridin-6-amine]	< 10 nM	< 10 nM
CNc1cc2c(cn1)c(-c1cnn(C)c1)nn2[C@H]1CC[C@@H](Oc2ccc(F)cc2F)CC1 [Example 358, 1-((1s,4s)-4-(2,4-difluorophenoxy)cyclohexyl)-N-methyl-3-(1-methyl-1H-pyrazol-4-yl)-1H-pyrazolo[4,3-c]pyridin-6-amine]	< 10 nM	< 10 nM
CNc1cc2c(cn1)c(-c1cnn(C)c1)nn2[C@H]1CC[C@@H](Oc2ccccc2Cl)CC1 [Example 360, 1-((1s,4s)-4-(2-chlorophenoxy)cyclohexyl)-N-methyl-3-(1-methyl-1H-pyrazol-4-yl)-1H-pyrazolo[4,3-c]pyridin-6-amine]	< 10 nM	< 10 nM
CNc1cc2c(cn1)c(-c1cnn(C)c1)nn2[C@H]1CC[C@@H](Oc2cccc(Cl)c2)CC1 [Example 361, 1-((1s,4s)-4-(3-chlorophenoxy)cyclohexyl)-N-methyl-3-(1-methyl-1H-pyrazol-4-yl)-1H-pyrazolo[4,3-c]pyridin-6-amine]	< 10 nM	< 10 nM
CNc1cc2c(cn1)c(-c1cnn(C)c1)nn2[C@H]1CC[C@@H](Oc2cc(F)ccc2F)CC1 [Example 362, 1-((1s,4s)-4-(2,5-difluorophenoxy)cyclohexyl)-N-methyl-3-(1-methyl-1H-pyrazol-4-yl)-1H-pyrazolo[4,3-c]pyridin-6-amine]	< 10 nM	< 10 nM
CNc1cc2c(cn1)c(-c1cnn(C)c1)nn2[C@H]1CC[C@@H](Oc2ccccc2C#N)CC1 [Example 363, 2-(((1s,4s)-4-(3-(1-methyl-1H-pyrazol-4-yl)-6-(methylamino)-1H-pyrazolo[4,3-c]pyridin-1-yl)cyclohexyl)oxy)benzonitrile]	< 10 nM	< 10 nM
